# Measured values reported in patent US12552771B2, “Carboxylic acid containing azetidinyl compounds for the treatment of neurodegenerative diseases” (Celgene Corporation, priority 2021, dated 2026).
# Structures can show the parent of a compound that is named as a salt.
# Target: T1, S1P5 receptors (Homo sapiens, UniProt Q9H228)
# T1 construct: expressed in transfected cells; host or cells: CHO cells (membranes)
# Test: [35S]-GTPγS binding assay with CHO-S1P5 receptor membranes
# Type: biochemical
# Details: membranes of CHO cells expressing recombinant S1P5 receptors; measure of S1P5 agonism
# Procedure: CHO cells expressing recombinant S1P5 receptors were cultured in 500 cm^2 culture trays and, once confluent, rinsed and detached with cell-lifting buffer (10 mM HEPES, 154 mM NaCl, 6.85 mM EDTA, pH 7.4). Cells were then pelleted by centrifugation, resuspended, and homogenized in membrane preparation buffer (10 mM HEPES and 10 mM EDTA, pH 7.4) using a Polytron PT 1200E homogenizer (Kinematica, Luzern, Switzerland). Cellular proteins were pelleted by centrifugation at 48,000×g at 4° C. for 30 minutes. The resulting supernatant was discarded, and the pellet was re-suspended again in membrane preparation buffer, homogenized for a second time, and then centrifuged again as described above. The final cellular protein pellet was suspended in ice cold resuspension buffer (10 mM HEPES and 0.1 mM EDTA, pH 7.4), divided into aliquots, and stored at −80° C. until use.
# Functional binding assays for [^35]-GTPγS were performed in 96-well non-binding surface plates with a final volume of 200 μL. The test compounds were serially diluted in DMSO and added to assay plates using a Tecan D300E digital printer with a total volume of […]. The control sphingosine-1-phosphate (SiP) was prepared separately by preparing a 400 μM stock solution from a 100 nmol pellet of SiP in 10 mM Na2CO3 with 2% […]. The serial dilution of SiP was done using complete assay buffer (20 mM HEPES, 10 mM MgCl2, 100 mM NaCl, 1 mM EDTA, 0.1% fatty acid free bovine serum albumin (BSA), and 30 μg/mL saponin, pH 7.4) and transferred to wells already containing 0.4 μL DMSO. All the wells were then loaded to a total volume of 40 μL of complete assay buffer, except the non-specific binding (NSB) wells. For NSB wells, 40 μL/well of 50 μM GTPγS (Sigma Aldrich, cat #G8634, St. Louis, MO) was added to wells containing 0.4 μL of DMSO. The assay was started by the addition of 120 μL/well of CHO-S1P receptor membrane solution containing 40 μg/mL of membrane protein, 16.67 μM guanosine diphosphate (GDP; Sigma Aldrich, cat #G7127, St. Louis, MO), and 2.5 mg/mL of WGA PVT SPA beads in complete buffer. Assay plates were then sealed and incubated at room temperature with gentle agitation for 30 minutes. Next, 40 μL/well of 1 nM of [^35]-GTPγS (PerkinElmer, cat #NEG030X250UC, Waltham, MA) in basic assay buffer (20 mM HEPES, 10 mM MgCl2, 100 mM NaCl, and 1 mM EDTA, pH7.4) was added to the assay plates to yield a final concentration of 200 pM and the plates were further incubated for 40 minutes at room temperature with gentle agitation. The assay was terminated by centrifugation of the plates at 1000 rpm for 3 minutes using an Eppendorf 5810R centrifuge (Eppendorf, Hamburg, Germany) and G protein bound radioactivity was quantitated using a MicroBeta2 microplate scintillation counter (PerkinElmer, Waltham, MA). As G protein bound radioactivity directly correlates to receptor activation and coupling to the G protein, this assay is a measure of S1P5 agonism.
# T1 sequence (Q9H228 whole entry): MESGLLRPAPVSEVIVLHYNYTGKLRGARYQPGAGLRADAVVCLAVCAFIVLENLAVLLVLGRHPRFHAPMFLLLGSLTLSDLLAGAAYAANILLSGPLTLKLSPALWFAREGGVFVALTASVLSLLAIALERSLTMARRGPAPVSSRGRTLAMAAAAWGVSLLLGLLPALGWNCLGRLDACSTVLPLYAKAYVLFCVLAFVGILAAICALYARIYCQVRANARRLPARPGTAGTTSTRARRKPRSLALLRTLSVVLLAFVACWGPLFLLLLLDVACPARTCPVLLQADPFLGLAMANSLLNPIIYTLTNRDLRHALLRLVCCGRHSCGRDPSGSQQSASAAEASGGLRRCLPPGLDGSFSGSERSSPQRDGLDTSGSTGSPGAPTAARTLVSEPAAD
row,SMILES,EC50 [nM]
1,"Cc1cc(C2CN(c3c(Cl)cccc3Cl)C2)cc(C)c1CN1CCC(C(=O)O)C(F)C1 (centres unmarked) [Compound 64, 1-(4-(1-(2,6-dichlorophenyl)azetidin-3-yl)-2,6-dimethylbenzyl)-3-fluoro-piperidine-4-carboxylic acid]",≤ 10
2,"Cc1cc(C2CN(c3c(C)cccc3C(F)F)C2)cc(C)c1CN1CCC(C(=O)O)CC1 [Compound 72, 1-(4-(1-(2-(difluoromethyl)-6-methylphenyl)azetidin-3-yl)-2,6-dimethyl-benzyl)piperidine-4-carboxylic acid]",10 to 100
3,"Cc1cc(C2CN(c3c(Cl)cccc3Cl)C2)c(C)cc1CN1CCC(C(=O)O)CC1 [Compound 19, 1-(4-(1-(2,6-dichlorophenyl)azetidin-3-yl)-2,5-dimethylbenzyl)piperidine-4-carboxylic acid]",≤ 10
4,"CC1(C(=O)O)CCN(Cc2ccc(C3CN(c4c(Cl)cccc4Cl)C3)cc2)CC1 [Compound 89, 1-(4-(1-(2,6-dichlorophenyl)azetidin-3-yl)benzyl)-4-methylpiperidine-4-carboxylic acid, formic acid salt]",10 to 100
5,"Cc1cc(N2CC(c3c(Cl)cccc3Cl)C2)c(C)cc1CN1CCC(C(=O)O)CC1 [Compound 30, 1-(4-(3-(2,6-dichlorophenyl)azetidin-1-yl)-2,5-dimethylbenzyl)piperidine-4-carboxylic acid]",≤ 10
6,"O=C(O)[C@@H]1CCN(Cc2ccc(C3CN(c4c(Cl)cccc4Cl)C3)cc2)C1 [Compound 12b, (R)-1-(4-(1-(2,6-dichlorophenyl)azetidin-3-yl)benzyl)pyrrolidine-3-carboxylic acid]",≤ 10
7,"Cc1cc(C2CN(c3c(Cl)cccc3Cl)C2)ccc1C(C)N1CCC(C(=O)O)CC1 (single isomer, unassigned) [Compound 16a, 1-(1-(4-(1-(2,6-dichlorophenyl)azetidin-3-yl)-2-methylphenyl)ethyl)piperidine-4-carboxylic acid]",10 to 100
8,"Cc1cc(C2CN(c3c(C)cccc3Cl)C2)cc(C)c1CN1CCC(C(=O)O)CC1 [Compound 67, 1-(4-(1-(2-chloro-6-methylphenyl)azetidin-3-yl)-2,6-dimethylbenzyl)-piperidine-4-carboxylic acid]",≤ 10
9,"O=C(O)C1CCN(Cc2ccc(C3CN(c4ccccc4F)C3)cc2)CC1 [Compound 40, 1-(4-(1-(2-fluorophenyl)azetidin-3-yl)benzyl)piperidine-4-carboxylic acid]",100 to 1000
10,"CCc1cccc(CC)c1N1CC(c2cc(C)c(CN3CCC(C(=O)O)CC3)c(C)c2)C1 [Compound 69, 1-(4-(1-(2,6-diethylphenyl)azetidin-3-yl)-2,6-dimethylbenzyl)piperidine-4-carboxylic acid]",≤ 10
11,"Cc1cc(CN2CCC(C(=O)O)CC2)cnc1C1CN(c2c(Cl)cccc2Cl)C1 [Compound 79, 1-((6-(1-(2,6-dichlorophenyl)azetidin-3-yl)-5-methylpyridin-3-yl)methyl)piperidine-4-carboxylic acid]",100 to 1000
12,"CC(C)(c1ccc(C2CN(c3c(Cl)cccc3Cl)C2)cc1)N1CCC(C(=O)O)CC1 [Compound 17, 1-(2-(4-(1-(2,6-dichlorophenyl)azetidin-3-yl)phenyl)propan-2-yl)piperidine-4-carboxylic acid]",≤ 10
13,"CCc1cccc(C)c1N1CC(c2cc(C)c(CN3CCC(C(=O)O)CC3)c(C)c2)C1 [Compound 68, 1-(4-(1-(2-ethyl-6-methylphenyl)azetidin-3-yl)-2,6-dimethylbenzyl)-piperidine-4-carboxylic acid]",≤ 10
14,"Cc1cc(CN2CCC(C(=O)O)CC2)cc(C)c1N1CC(c2c(Cl)cccc2Cl)C1 [Compound 31, 1-(4-(3-(2,6-dichlorophenyl)azetidin-1-yl)-3,5-dimethylbenzyl)piperidine-4-carboxylic acid]",≤ 10
15,"Cc1cc(C2CN(c3ccc(C4CC4)cc3)C2)cc(C)c1CN1CCC(C(=O)O)CC1 [Compound 48, 1-(4-(1-(4-cyclopropylphenyl)azetidin-3-yl)-2,6-dimethylbenzyl)piperidine-4-carboxylic acid]",1000 to 10000
16,"CCc1cc(C2CN(c3c(Cl)cccc3Cl)C2)cc(C)c1CN1CCC(C(=O)O)CC1 [Compound 55, 1-(4-(1-(2,6-dichlorophenyl)azetidin-3-yl)-2-ethyl-6-methylbenzyl)-piperidine-4-carboxylic acid]",≤ 10
17,"CC(C)c1cc(C2CN(c3c(Cl)cccc3Cl)C2)cc(C(C)C)c1CN1CCC(C(=O)O)CC1 [Compound 53, 1-(4-(1-(2,6-dichlorophenyl)azetidin-3-yl)-2,6-diisopropylbenzyl)piperidine-4-carboxylic acid]",100 to 1000
18,"O=C(O)C1CCN(Cc2ccc(C3CN(c4ccccc4)C3)cc2)CC1 [Compound 39, 1-(4-(1-phenylazetidin-3-yl)benzyl)piperidine-4-carboxylic acid]",1000 to 10000
19,"Cc1cc(C2CN(c3c(C)cccc3C(F)(F)F)C2)cc(C)c1CN1CCC(C(=O)O)CC1 [Compound 73, 1-(2,6-dimethyl-4-(1-(2-methyl-6-(trifluoromethyl)phenyl)azetidin-3-yl)-benzyl)piperidine-4-carboxylic acid]",≤ 10
20,"O=C(O)C1CCN(Cc2ccc(C3CN(c4ccc(C5CC5)cc4)C3)cc2)CC1 [Compound 43, 1-(4-(1-(4-cyclopropylphenyl)azetidin-3-yl)benzyl)piperidine-4-carboxylic acid]",1000 to 10000

# Second part, the molecule after the results:
row,EC50 [nM],SMILES
1,100 to 1000,"O=C(O)C1CCN(Cc2ccc(C3CN(c4ccc(C5CC5)c(Cl)c4)C3)cc2)CC1 [Compound 42, 1-(4-(1-(3-chloro-4-cyclopropylphenyl)azetidin-3-yl)benzyl)piperidine-4-carboxylic acid]"
2,1000 to 10000,"O=C(O)C1CCN(C2CCc3cc(C4CN(c5ccccc5F)C4)ccc32)CC1 (single isomer, unassigned) [Compound 4b, 1-(5-(1-(2-fluorophenyl)azetidin-3-yl)-2,3-dihydro-1H-inden-1-yl)piperidine-4-carboxylic acid]"
3,100 to 1000,"O=C(O)C1CCN(C2CCc3cc(C4CN(c5cccc(F)c5)C4)ccc32)CC1 (single isomer, unassigned) [Compound 3a, 1-(5-(1-(3-fluorophenyl)azetidin-3-yl)-2,3-dihydro-1H-inden-1-yl)piperidine-4-carboxylic acid]"
4,1000 to 10000,"O=C(O)C1CCN(Cc2ccc(C3CN(c4cccc(F)c4)C3)cc2)CC1 [Compound 41, 1-(4-(1-(3-fluorophenyl)azetidin-3-yl)benzyl)piperidine-4-carboxylic acid]"
5,100 to 1000,"O=C(O)C1CN(C2CCc3cc(C4CN(c5cccc(F)c5)C4)ccc32)C1 (single isomer, unassigned) [Compound 8b, 1-(5-(1-(3-fluorophenyl)azetidin-3-yl)-2,3-dihydro-1H-inden-1-yl)azetidine-3-carboxylic acid]"
6,10 to 100,"O=C(O)C1CCN(Cc2ccc(N3CC(c4c(Cl)cccc4Cl)C3)cc2F)CC1 [Compound 33, 1-(4-(3-(2,6-dichlorophenyl)azetidin-1-yl)-2-fluorobenzyl)piperidine-4-carboxylic acid]"
7,10 to 100,"O=C(O)C1CCN(C2CCc3cc(C4CN(c5c(F)cccc5F)C4)ccc32)CC1 (single isomer, unassigned) [Compound 2a, 1-(5-(1-(2,6-difluorophenyl)azetidin-3-yl)-2,3-dihydro-1H-inden-1-yl)-piperidine-4-carboxylic acid]"
8,100 to 1000,"O=C(O)C1CCN(C2CCc3cc(N4CC(c5c(F)cccc5F)C4)ccc32)CC1 (single isomer, unassigned) [Compound 9b, 1-(5-(3-(2,6-difluorophenyl)azetidin-1-yl)-2,3-dihydro-1H-inden-1-yl)piperidine-4-carboxylic acid]"
9,≤ 10,"O=C(O)C1CCN(Cc2ccc(C3CN(c4c(Cl)cccc4Cl)C3)cc2F)CC1 [Compound 23, 1-(4-(1-(2,6-dichlorophenyl)azetidin-3-yl)-2-fluorobenzyl)piperidine-4-carboxylic acid]"
